In data set [1] the target is T1, NMDA receptor ([3H]ifenprodil binding site) (Rattus norvegicus, UniProt P35439+Q00960).
T1 construct: tissue Zivic-Miller Laboratories, Inc; host or cells: adult rat forebrain, washed buffy coat membrane fraction
Description: [3H]Ifenprodil binding assay, rat forebrain membranes. Particulars: adult rat forebrain membranes, 4 nM [3H]-ifenprodil, 2 hours at room temperature, pH 7.4. The procedure:
[^3H]Ifenprodil Binding Assay Protocol:
All buffers and reagents used in assay incubations or to dissolve drugs were prepared using water purified through a Milli-Q reverse osmosis system (Millipore Corp, Bedford, Mass.) and treated with UV emissions. Prior to use in the assays, buffers were further filtered through a sterile Corning filtration unit (Corning Glass Works, Corning, N.Y.) containing a 0.2 micron filter. Buffer used to rinse the membranes on the assay filters was prepared with purified water, but was not refiltered and was stored no longer than 5 days. Stock solutions of the drugs (usually 10 mM) were dissolved in 20 mM HEPES-KOH buffer pH 7.4 (assay buffer) with the addition of 1 to 5 μL of glacial AcOH, if needed, to keep them in solution. For eliprodil, the stock solution was buffer with the addition of 10% DMSO. All subsequent dilutions from stock were made in buffer.
An extensively washed buffy coat membrane fraction was prepared from frozen adult rat forebrains (Zivic-Miller Laboratories, Inc, Zelienople, Pa.) as described previously (Coughenour L. L., Cordon J. J. J. Pharmacol Exp. Ther., 1997;280:584-592) and stored at −80° C. On the day of the assay, pellets were resuspended in 35 mL of assay buffer at pH 7.4 using a Polytron setting 6. After incubation at 37° C. for 30 minutes in a shaking water bath, the homogenate was centrifuged 40,000×g for 10 minutes at 4° C. The pellets were resuspended in fresh buffer and centrifuged 3 more times before final suspension for use in the assay.
[^3H]Ifenprodil Binding. Triplicate incubations were carried out in a volume of 0.5 mL in 1.3 mL polypropylene tubes (Marsh Biomedical Products Inc, Rochester, N.Y.) for 2 hours at room temperature. Incubations contained test agents, membranes (100-200 μg protein), and 4 nM [^3H]-ifenprodil in 20 mM HEPES-KOH buffer, pH 7.4 (assay buffer). Assays were started by addition of the membranes. Bound radioligand was separated by filtration under reduced pressure Using a Tomtec Mach II, 96-well cell harvester (Tomtec Inc, Orange, Colo.). Filtration was through Whatman GF/B glass fiber filters (Whatman Ltd, Maidstone, England), which had been soaked for at least 15 minutes in 0.3% polyethylenimine and allowed to air dry. The filters were rinsed with 3 mL of ice cold assay buffer within 6 seconds. Air was allowed to pass through the filters for an additional 10 seconds to remove residual moisture. The filter mat was supported on a cold (−20° C.) teflon support, and filters from individual wells were separated and placed in Mini Poly-Q vials (Beckman Instrrnents Inc, Fullerton, Calif.) and filled with 4 mL of scintillation cocktail (Beckman Ready Protein^+). Radioactivity retained on the filter was determined by liquid scintillation spectrophotometry. Nonspecific binding was defined as the binding in the presence of 1 mM ifenprodil. Specific binding was 90%.
Data analysis. Binding curves were statistically analyzed for a best one or two site competition fit using GraphPad Prism software (GraphPad Software Inc, San Diego, Calif.). The normalized data was fit by nonweighted nonlinear regression to either [formula]
Control data was entered as 100%, and no parameters were constrained. Inhibition curves were compared by ANOVA with post test comparisons of the logIC50 using Dunnett's multiple comparisons post test or Student's nonpaired, two-tailed t-test (GraphPad InStat software).

Data set [2] has as its target NR2A/NR2B (Rattus norvegicus, UniProt Q00960). Description: Electrophysiological assay at NMDA receptor subunits expressed in Xenopus oocytes (two-electrode voltage clamp). Format: cell-based. Particulars: cloned rat NMDA receptor subunits in Xenopus oocytes; currents activated by glutamate (100 μM) and glycine (1-100 μM); read-out: NR2A/NR2B Oocyte IC50. The text has this:
Electrophysiological Assays at NMDA Receptor Subunits
Preparation of RNA. cDNA clones encoding the NR1A, NR2A, NR2B, and NR2C rat NMDA receptor subtypes were used (see, Moriyoshi et al. Nature (Lond), 1991;354:31-37; Kutsuwada et al. Nature (Lond), 1992;358:36-41; Monyer et al. Science (Washington, D.C.), 1992;256:1217-1221; Ikeda et al. FEBS Lett., 1992;313:34-38; Ishii et al. J. Biol. Chem., 1993;268:2836-2843 for details of these clones or their mouse homologs). The clones were transformed into appropriate host bacteria, and plasmid preparations were made with conventional DNA purification techniques. A sample of each clone was linearized by restriction enzyme digestion of […] and was synthesized with T3 RNA polymerase. The cRNA was diluted to 400 ng/μL and stored in 1 μL aliquots at −80° C. until injection.
The Xenopus oocyte expression system. Mature female Xenopus laevis were anaesthetized (20-40 minutes) using 0.15% 3-aminobenzoic acid ethyl ester (MS-222), and 2-4 ovarian lobes were surgically removed. Oocytes at developmental stages IV-VI (Dumont J. N. J. Morphol., 1972;136:153-180) were dissected from the ovary still surrounded by enveloping ovarian tissues. Follicle-enclosed oocytes were micro-injected with 1:1 mixtures of NR1A:NR2A, 2B, or 2C; injecting 1 to 10 ng of RNA encoding each receptor subunit. NR1A encoding RNA was injected alone at ˜20 ng. Oocytes were stored in Barth's medium containing (in mM): NaCl, 88; KCl, 1; CaCl2, 0.41; Ca (NO3)2, 0.33; MgSO4, 0.82; NaHCO3, 2.4; HEPES 5, pH 7.4, with 0.11 mg/ml gentamicin sulphate. While oocytes were still surrounded by enveloping ovarian tissues, the Barth's medium was supplemented with 0.1% bovine serum. […]
Electrical recordings were made using a conventional two-electrode voltage clamp (Dagan TEV-200) over periods ranging between 3 to 21 days following injection. […] Using oocytes expressing different subunit combinations of NMDA receptor, NMDA currents were activated by co-application of glutamate (100 μM and glycine (1-100 μM). Inhibitory potency of the novel antagonists was assessed on responses elicited by fixed concentrations of glutamate and glycine, by measuring reductions in current induced by progressively increasing concentrations of antagonist. […]
In which Icontrol is the current evoked by agonists alone, pIC50=−log IC50, IC50 is the concentration of antagonist that produced half maximal inhibition, and n is the slope factor (De Lean et al. Am. J. Physiol., 1978;235:E97-102). For incomplete curves, analysis by fitting was unreliable, and IC50 values were calculated by simple regression over linear portions of the curves (Origin: Microcal Software).
For orientation: In two-electrode clamp one electrode senses voltage and the other passes current.

Among the data in patent publication US6683101B2, “Bicyclic cyclohexylamines and their use as NMDA receptor antagonists” (Warner-Lambert Company, priority 2000, dated 2004) are melting point and IC50 values, retold here.

Counter-ions that a name gives are not always drawn.

The term melting point denotes the temperature, or range, at which the solid turns liquid.

T1 sequence (Q00960 27-1482, other chains not shown): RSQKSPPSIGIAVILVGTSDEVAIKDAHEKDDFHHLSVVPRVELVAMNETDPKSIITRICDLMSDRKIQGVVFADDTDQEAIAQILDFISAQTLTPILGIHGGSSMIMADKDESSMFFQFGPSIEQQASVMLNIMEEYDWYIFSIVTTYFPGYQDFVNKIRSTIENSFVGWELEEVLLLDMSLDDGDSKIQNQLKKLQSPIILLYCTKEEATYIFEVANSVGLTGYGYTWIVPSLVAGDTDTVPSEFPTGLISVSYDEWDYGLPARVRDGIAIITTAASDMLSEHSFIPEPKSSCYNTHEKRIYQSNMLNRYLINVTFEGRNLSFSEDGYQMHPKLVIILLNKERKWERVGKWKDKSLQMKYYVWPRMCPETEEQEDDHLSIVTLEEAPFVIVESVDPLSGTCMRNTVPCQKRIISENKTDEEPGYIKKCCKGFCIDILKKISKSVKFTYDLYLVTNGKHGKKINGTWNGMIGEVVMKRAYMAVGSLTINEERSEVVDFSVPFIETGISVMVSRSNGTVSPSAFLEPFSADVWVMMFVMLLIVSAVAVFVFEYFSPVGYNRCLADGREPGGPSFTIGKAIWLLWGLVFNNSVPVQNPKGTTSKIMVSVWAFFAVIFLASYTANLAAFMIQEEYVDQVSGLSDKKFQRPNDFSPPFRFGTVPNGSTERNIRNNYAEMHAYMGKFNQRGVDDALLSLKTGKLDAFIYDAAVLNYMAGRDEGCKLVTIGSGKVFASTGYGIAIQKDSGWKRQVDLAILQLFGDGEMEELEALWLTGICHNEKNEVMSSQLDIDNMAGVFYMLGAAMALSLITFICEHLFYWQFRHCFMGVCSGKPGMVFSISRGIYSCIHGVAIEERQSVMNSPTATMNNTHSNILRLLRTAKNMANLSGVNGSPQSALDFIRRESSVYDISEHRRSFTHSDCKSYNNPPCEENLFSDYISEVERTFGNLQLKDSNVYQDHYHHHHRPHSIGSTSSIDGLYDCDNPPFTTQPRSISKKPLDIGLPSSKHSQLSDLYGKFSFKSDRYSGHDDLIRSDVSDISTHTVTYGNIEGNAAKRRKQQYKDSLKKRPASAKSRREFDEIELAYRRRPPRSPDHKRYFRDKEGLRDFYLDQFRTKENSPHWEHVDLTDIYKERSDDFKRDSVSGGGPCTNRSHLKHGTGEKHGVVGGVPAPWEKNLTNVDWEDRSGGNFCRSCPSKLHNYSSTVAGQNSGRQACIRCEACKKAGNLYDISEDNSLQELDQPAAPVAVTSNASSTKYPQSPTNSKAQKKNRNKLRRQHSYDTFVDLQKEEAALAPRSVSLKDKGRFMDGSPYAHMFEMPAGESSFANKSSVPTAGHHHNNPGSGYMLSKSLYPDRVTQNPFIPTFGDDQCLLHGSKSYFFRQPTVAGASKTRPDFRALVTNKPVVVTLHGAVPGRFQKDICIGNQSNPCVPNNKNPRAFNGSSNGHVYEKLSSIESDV
Sequence of NR2A/NR2B (Q00960 27-1482, other chains not shown): as above

Take `O=c1[nH]c2ccc(CCCN[C@H]3CC[C@H](c4ccc(F)cc4)CC3)cc2o1` (as salt: HCl) [Example 2, 6-{3-[trans-4-(4-Fluorophenyl)cyclohexylamino]propyl}-3H-benzoxazol-2-one]: the melting point lay within 295 to 303 °C.
The molecule `CN(CCN[C@H]1CC[C@H](c2ccccc2)CC1)c1ccc2[nH]c(=O)oc2c1` (as salt: HCl) [Example 3, 6-{Methyl[2-(trans-4-phenylcyclohexylamino)ethyl]amino}-3H-benzoxazol-2-one] came in with a melting point of 229 to 234 °C.
On the same count and under the same terms, under `CN(CCCc1ccc2[nH]c(=O)oc2c1)[C@H]1CC[C@H](c2ccc(F)cc2)CC1` (as salt: HCl) [Example 6, 6-(3-{[trans-4-(4-Fluorophenyl)cyclohexyl]methylamino}propyl)-3H-benzoxazol-2-one] stands 235 to 241 °C; under `CCN(CCCc1ccc2[nH]c(=O)oc2c1)[C@H]1CC[C@H](c2ccc(F)cc2)CC1` (as salt: HCl) [Example 7, 6-(3-{[trans-4-(4-Fluorophenyl)cyclohexyl]ethylamino}propyl)-3H-benzoxazol-2-one], 99 to 109 °C; under `O=c1[nH]c2ccc(OCCN[C@H]3CC[C@@H](c4ccccc4)CC3)cc2[nH]1` (as salt: HCl) [Example 8a, 5-[2-(cis-4-Phenylcyclohexylamino)ethoxy]-1,3-dihydrobenzimidazol-2-one], 232 to 237 °C.
Still for that read-out and setting: under `O=c1[nH]c2ccc(OCCN[C@H]3CC[C@H](c4ccccc4)CC3)cc2[nH]1` (as salt: HCl) [Example 8b, 5-[2-(trans-4-Phenylcyclohexylamino)ethoxy]-1,3-dihydrobenzimidazol-2-one] stands 315 to 320 °C.
The molecule `O=c1[nH]c2ccc(CCCN[C@H]3CC[C@H](c4ccccc4)CC3)cc2o1` [Example 1, 6-[3-(trans-4-Phenylcyclohexylamino)propyl]-3H-benzoxazol-2-one] showed a melting point of 218 to 223 °C. For the same molecule, the IC50 in data set [1] is 53 nM.
Turning to `O=c1[nH]c2ccc(CCCN[C@H]3CC[C@H](c4ccc(F)cc4)CC3)cc2o1` [Example 2, 6-{3-[trans-4-(4-Fluorophenyl)cyclohexylamino]propyl}-3H-benzoxazol-2-one], in data set [2], the IC50 worked out at 120 nM.
Regarding `CN(CCN[C@H]1CC[C@H](c2ccccc2)CC1)c1ccc2[nH]c(=O)oc2c1` [Example 3, 6-{Methyl[2-(trans-4-phenylcyclohexylamino)ethyl]amino}-3H-benzoxazol-2-one], the IC50 in data set [2] stood at 1000 nM.
`O=c1[nH]c2ccc(SCCN[C@H]3CC[C@H](c4ccccc4)CC3)cc2o1` [Example 4, 6-[2-(trans-4-Phenylcyclohexylamino)ethylsulfanyl]-3H-benzoxazol-2-one] gave an IC50 in data set [1] of 91 nM.
In the case of `CN(CC(O)c1ccc2[nH]c(=O)[nH]c2c1)[C@H]1CC[C@H](c2ccccc2)CC1` (stereo partly drawn) [Example 5, 5-{1-Hydroxy-2-[methyl(trans-4-phenylcyclohexyl)amino]ethyl}-1,3-dihydrobenzimidazol-2-one], in data set [1], the IC50 was 1760 nM.
Still for that read-out and setting: under `CN(CCCc1ccc2[nH]c(=O)oc2c1)[C@H]1CC[C@H](c2ccc(F)cc2)CC1` [Example 6, 6-(3-{[trans-4-(4-Fluorophenyl)cyclohexyl]methylamino}propyl)-3H-benzoxazol-2-one] stands 730 nM.
Still for that read-out and setting: under `CCN(CCCc1ccc2[nH]c(=O)oc2c1)[C@H]1CC[C@H](c2ccc(F)cc2)CC1` [Example 7, 6-(3-{[trans-4-(4-Fluorophenyl)cyclohexyl]ethylamino}propyl)-3H-benzoxazol-2-one] stands over 1000 nM.
Consider `O=c1[nH]c2ccc(OCCN[C@H]3CC[C@@H](c4ccccc4)CC3)cc2[nH]1` [Example 8a, 5-[2-(cis-4-Phenylcyclohexylamino)ethoxy]-1,3-dihydrobenzimidazol-2-one], for which the IC50 in data set [2] worked out at 280 nM.
Turning to `O=c1[nH]c2ccc(OCCN[C@H]3CC[C@H](c4ccccc4)CC3)cc2[nH]1` [Example 8b, 5-[2-(trans-4-Phenylcyclohexylamino)ethoxy]-1,3-dihydrobenzimidazol-2-one], the IC50 in data set [2] turned out to be 120 nM.
